Data on 2 molecules can be found in patent publication US10532041B2, “Formulation comprising glycopyrrolate, method and apparatus” (Vectura Limited, priority 2014, dated 2020).

Data set [1] in a line: Particle size distribution, MALVERN MASTERSIZER 3000, Aero S dry dispersion method at 4 Bar. It is filed as physicochemical. The note with it: unmicronised source powder. The procedure:
The particle size distribution for unmicronised glycopyrrolate was determined by MALVERN MASTERSIZER analysis (MALVERN MASTERSIZER® 3000, using the Aero S dry dispersion method at 4 Bar) and found to be D10=11.3 μm, D50=98.0 μm, D90=281 μm (see FIG. 1).
The particle size distributions for Formulation 1 (D10=0.283 μm, D50=1.66 μm, D90=5.40 μm) and Formulation 2 (D10=0.270 μm, D50=1.41 μm, D90=3.66 μm were determined by MALVERN MASTERSIZER® analysis (MALVERN MASTERSIZER® 3000, using the Aero S dry dispersion method at 4 Bar). These are reported in FIGS. 4 and 8 respectively and Table 1 below.
The particle size distribution for the micronized glycopyrrolate formulations was determined by MALVERN MASTERSIZER® analysis (MALVERN MASTERSIZER® 3000, using the Aero S dry dispersion method at 4 Bar and a feed rate of between 30-40%). The optical properties used included a refractive index of 1.52 and an absorption value of 1.0.

Data set [2] is described as follows: Particle size distribution, MALVERN MASTERSIZER 3000, Hydro MV wet dispersion (wet analysis). It is filed as physicochemical. The note with it: wet analysis method; starting material before milling. The protocol:
The particle size distribution for the micronized glycopyrrolate formulations was determined by MALVERN MASTERSIZER® 3000 using the Hydro MV wet dispersion unit as follows: the dispersion unit was filled with iso-octane (2,2,4-trimethylpentane). The pump speed was set to 3000 rpm. Ten millilitres of 0.1% lecithin in iso-octane was added to approximately 10 mg of the micronized glycopyrrolate formulation, this pre-dispersion was then sonicated for 3 minutes using a Sonopuls sonic probe at 50% intensity. The dispersed particles were added to the dispersion unit to reach an obscuration of 5-15%. The optical properties used included a refractive index of 1.52 and an absorption value of 1.0 for the glycopyrrolate, and a refractive index of 1.45 and an absorption value of 1.0 for the magnesium stearate and a refractive index of 1.391 for the iso-octane. Six replicates were performed per measurement.

In data set [1], `C[N+]1(C)CCC(OC(=O)C(O)(c2ccccc2)C2CCCC2)C1` (stereo not shown) [unmicronised glycopyrrolate, glycopyrrolate] displayed a D10 of 11.3 μm, a D50 of 98.0 μm and a D90 of 281 μm. Besides, the “cumulative fraction under 5 μm” value in data set [1] (stored sealed) is 4.68%. In data set [2], the D10 amounted to 20.6 μm, the D50 was 148.7 μm and the D90 is listed as 409.7 μm.
As for magnesium stearate, in data set [2], the D10 was found to be 2.8 μm, the D50 is recorded as 8.8 μm and the D90 came out at 27.4 μm.
